# According to paper PMC1948018 (Retrovirology, 2007):
# How the values were obtained:
# HIV-1 = system: HIV-1; parameters: method as in PMID 11461999; conditions: extensive 6 month study; cited from earlier work
# [1] = Phase I trials, highest tested doses; cited from earlier work
# [2] = system: peripheral blood lymphocytes (PBLs); assay: Cell viability (ATPLite) in PBLs; assay type: cell-based, human; conditions: average of days 4, 8, 12, 16
# Experimental: (§1) Human monocyte derived macrophages (MDMs) and peripheral blood lymphocytes (PBLs) cells were isolated from 350 ml of peripheral blood from healthy, HIV negative donors. Peripheral blood mononuclear cells (PBMCs) were isolated as previously described. Briefly, PBMCs were separated by centrifugation in lymphocyte separation medium (ICN Biomedicals, Solon, Ohio). The separated PBMCs were placed on gelatin and fibronectin-coated flasks in order to separate monocytes from mononuclear cells. Adherent monocytes were lifted with EDTA, washed and plated at a density of 1 × 10^6 per well in 48-well trays for infectivity and cytotoxicity studies. Monocytes were differentiated for 5 days in DMEM with 10% FCS, 10% human serum and 1% penicillin/streptomycin in order to generate monocyte-derived macrophages prior to HIV infections and drug treatment. PBLs were treated with 5 μg/ml of phytohaemagglutinin (PHA) for 72 hours prior to HIV infection and drug treatment. PHA-treated PBLs were plated at a density of 1 × 10^6 per well in 48-well trays and maintained in RPMI 1640 with 10% FCS, 1% Penicillin/Streptomycin and 10 units/ml of recombinant IL-2. Viral infection was performed in MDMs and PBLs by adding 10,000 RT units of HIV-1p256 stock per 1 × 10^6 cells. During long term studies in primary cells, supernatants were collected at 4, 8, 12 and 16 days post-infection, frozen at -80°C until analyzed and media was refreshed.
# The impact of the P-TEFb inhibitors on cell viability was measured by ATPlite (Perkin Elmer). These cytotoxicity studies were performed as recommended by manufacturer utilizing a substrate solution that emits light in a manner proportional to the ATP present in each sample. Cells were plated in a 48-well format. Cells were treated with serial dilutions of the P-TEFb inhibitors and maintained for the indicated period of time. Mammalian cell lysis buffer was added to lyse the cells, followed by addition of the substrate solution. The amount of light produced in each well was measured in a TopCountR Microplate Scintillation and Luminescence Counter (Packard Instruments). […]
# HIV-1p256 [3] = assay: Long-term HIV-1 replication in MDMs (RT activity in supernatants); assay type: cell-based; conditions: Human immunodeficiency virus 1, pooled data of independent donors; days 4, 8, 12, 16; read-out: average IC50 for inhibition of HIV-1 replication in MDMs
# Experimental: (§2) Peripheral blood mononuclear cells (PBMCs) were isolated as previously described. Briefly, PBMCs were separated by centrifugation in lymphocyte separation medium (ICN Biomedicals, Solon, Ohio). The separated PBMCs were placed on gelatin and fibronectin-coated flasks in order to separate monocytes from mononuclear cells. […] PBLs were treated with 5 μg/ml of phytohaemagglutinin (PHA) for 72 hours prior to HIV infection and drug treatment. […] During long term studies in primary cells, supernatants were collected at 4, 8, 12 and 16 days post-infection, frozen at -80°C until analyzed and media was refreshed. […] Reverse transcriptase (RT) assays were performed on supernatants from HIV-1p256 infected cells as previously described. […] The mixture was incubated at 37°C for 3.5 hours and then blotted onto DE81 paper. The DE81 paper was washed 4 times with 3× SSPE and the amount of radioactivity that was incorporated into negative strand DNA was quantified with an InstantImager (Packard Instruments).
# HIV-1p256 [4] = assay: microbe, parasite or virus in culture; assay type: cell-based; conditions: Human immunodeficiency virus 1, HeLa37, 40 h, read-out: IC50 of inhibition of HIV in HeLa 37 cells
# Experimental: Short-term, single hit infectivity studies were performed as previously described. HeLa37 cells were plated in a 48-well tray and triplicate wells were infected with a dual-tropic HIV-1p256 and serial dilutions of P-TEFb inhibitor for 40 hours. The cells were fixed with 75% acetone/25% H2O and immunostained for HIV-1 antigens using human anti-HIV serum (a gift from Dr. Jack Stapleton, Univ. of Iowa) and HRP-conjugated goat anti-human IgG followed by staining with 3-amino-9-ethylcarbazole (AEC). The HIV-1 antigen-positive cells were counted. Experiments were repeated at least three times with each drug concentration in triplicate.
# HIV-1p256 [5] = assay: Long-term HIV-1 replication in PBLs (RT activity in supernatants); assay type: cell-based; conditions: average of days 4, 8, 12, 16, read-out: average IC50 for inhibition of viral replication in PBLs
# Experimental: as §2
# HeLa37 cells = assay: Cell viability (ATPlite) in HeLa37 cells; assay type: cell-based; conditions: performed in parallel to the 40 hour infectivity assay
# Experimental: The impact of the P-TEFb inhibitors on cell viability was measured by ATPlite (Perkin Elmer). These cytotoxicity studies were performed as recommended by manufacturer utilizing a substrate solution that emits light in a manner proportional to the ATP present in each sample. Cells were plated in a 48-well format. Cells were treated with serial dilutions of the P-TEFb inhibitors and maintained for the indicated period of time. Mammalian cell lysis buffer was added to lyse the cells, followed by addition of the substrate solution. The amount of light produced in each well was measured in a TopCountR Microplate Scintillation and Luminescence Counter (Packard Instruments). Cytotoxicity experiments in HeLa37 cells were repeated at least three times with triplicates of each drug concentration.
# large form of P-TEFb [6] = target: T1, large form of P-TEFb (Homo sapiens, UniProt P50750); assay: Differential salt extraction, loss of large form of P-TEFb in Jurkat cells; assay type: cell-based; conditions: 1 hour treatment, increasing concentrations
# Experimental: (§3) The cytosolic extracts were prepared by resuspending the cells in 80 μl of Buffer A (10 mM KCl, 10 mM MgCl2, 10 mM HEPES, 1 mM EDTA, 1 mM DTT, 0.1% PMSF and EDTA-free complete protease inhibitor cocktail (Roche)) with 0.5% NP-40 for 10 minutes on ice. The nuclei were spun down at 5,000 g for 5 minutes and the supernatant was saved as the cytosolic extract (CE). The nuclei were washed once with 200 μl of Buffer A with 0.5% NP-40 and re-pelleted. The nuclei were resuspended in 80 μl of Buffer B (450 mM NaCl, 1.5 mM MgCl2, 20 mM HEPES, 0.5 mM EDTA, 1 mM DTT, 0.1% PMSF and EDTA-free complete protease inhibitor cocktail (Roche)) and incubated on ice for 10 minutes. The lysates were clarified by centrifugation at 20,000 g for 10 minutes. The supernatant was saved as the nuclear extract (NE). Western blotting was performed with one fifth of the samples and the fraction of Cdk9 and cyclin T1 in the cytosolic and nuclear extracts was determined by imaging the chemiluminescent signal using a cooled CCD camera (UVP). The signal was quantitated using LabWorks 4.0 software and the data fit to a logistic dose response curve using TableCurve (Jandel Scientific) to determine the IC50 for loss of the large, low salt extractable form of P-TEFb.
# [7] = system: monocyte derived macrophages (MDMs); assay: Cell viability (ATPLite) in MDMs; assay type: cell-based, human; conditions: pooled data of independent donors; days 4, 8, 12, 16
# Experimental: as §1, with “PHA-treated PBLs were plated at a density of 1 × 10^6 per well in 48-well trays and maintained in RPMI 1640 with 10% FCS, 1% Penicillin/Streptomycin and 10 units/ml of recombinant IL-2. Viral infection was performed in MDMs and PBLs by adding 10,000 RT units of HIV-1p256 stock per 1 × 10^6 cells.” left out
# The impact of the P-TEFb inhibitors on cell viability was measured by ATPlite (Perkin Elmer). […] The amount of light produced in each well was measured in a TopCountR Microplate Scintillation and Luminescence Counter (Packard Instruments). […]
# [8] = target: recombinant P-TEFb (Cdk9/cyclin T1) (Homo sapiens, UniProt P50750); parameters: method as in earlier work; conditions: preparation of DRB tested earlier; Peng et al (1998) Genes and Dev. 12: 755–762; read-out: IC50 of kinase inhibition; cited from earlier work
# large form of P-TEFb [9] = target: T1, large form of P-TEFb; assay: Glycerol gradient analysis of large and free forms of P-TEFb in DRB-treated HeLa cells; assay type: cell-based
# Experimental: HeLa cells were grown in 100 ml of DMEM with 10% FCS to a density of 4 × 10^5 cells/ml in spinner flasks. The cells were treated for 1 hour with no P-TEFb inhibitor or serial dilutions of DRB ranging from 0.1 to 10 μM. Cell lysates were prepared in Buffer A (10 mM KCl, 10 mM MgCl2, 10 mM HEPES, 1 mM EDTA, 1 mM DTT, 0.1% PMSF and EDTA-free complete protease inhibitor cocktail (Roche)) containing 150 mM NaCl and 0.5% NP-40. The lysates were clarified by centrifugation at 20,000 g for 10 minutes at 4°C. The supernatant was layered on top of a 5–45% glycerol gradient containing 150 mM NaCl. Gradients were spun at 190,000 g for 16 hours using a SW-55Ti rotor. The fractions were analyzed for the presence of P-TEFb complexes by immunoblotting with anti-cyclin T1 and anti-Cdk9 antibodies (Santa Cruz). Following incubation with the appropriate HRP-conjugated secondary antibodies, the blots were developed using SuperSignal DuraWest (Pierce). The western blots were imaged using a cooled CCD camera (UVP) and the amount of P-TEFb in the large and free form was quantitated using LabWorks 4.0 software.
# large form of P-TEFb [10] = target: T1, large form of P-TEFb; assay: Differential salt extraction, loss of large form of P-TEFb in HeLa cells; assay type: cell-based; conditions: for IC50: 1 hour treatment
# Experimental: as §3
# T1 sequence (P50750 whole entry): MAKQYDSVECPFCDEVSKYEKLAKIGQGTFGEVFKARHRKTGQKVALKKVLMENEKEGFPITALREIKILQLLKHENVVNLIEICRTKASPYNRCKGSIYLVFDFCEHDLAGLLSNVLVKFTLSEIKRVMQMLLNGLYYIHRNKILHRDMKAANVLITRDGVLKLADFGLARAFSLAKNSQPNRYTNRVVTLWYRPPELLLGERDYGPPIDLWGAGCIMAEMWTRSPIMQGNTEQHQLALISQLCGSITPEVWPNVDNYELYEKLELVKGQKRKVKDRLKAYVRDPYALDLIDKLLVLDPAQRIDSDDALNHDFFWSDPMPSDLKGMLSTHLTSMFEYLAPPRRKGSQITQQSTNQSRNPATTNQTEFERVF
# T1 sequence (O60563 whole entry, further chain): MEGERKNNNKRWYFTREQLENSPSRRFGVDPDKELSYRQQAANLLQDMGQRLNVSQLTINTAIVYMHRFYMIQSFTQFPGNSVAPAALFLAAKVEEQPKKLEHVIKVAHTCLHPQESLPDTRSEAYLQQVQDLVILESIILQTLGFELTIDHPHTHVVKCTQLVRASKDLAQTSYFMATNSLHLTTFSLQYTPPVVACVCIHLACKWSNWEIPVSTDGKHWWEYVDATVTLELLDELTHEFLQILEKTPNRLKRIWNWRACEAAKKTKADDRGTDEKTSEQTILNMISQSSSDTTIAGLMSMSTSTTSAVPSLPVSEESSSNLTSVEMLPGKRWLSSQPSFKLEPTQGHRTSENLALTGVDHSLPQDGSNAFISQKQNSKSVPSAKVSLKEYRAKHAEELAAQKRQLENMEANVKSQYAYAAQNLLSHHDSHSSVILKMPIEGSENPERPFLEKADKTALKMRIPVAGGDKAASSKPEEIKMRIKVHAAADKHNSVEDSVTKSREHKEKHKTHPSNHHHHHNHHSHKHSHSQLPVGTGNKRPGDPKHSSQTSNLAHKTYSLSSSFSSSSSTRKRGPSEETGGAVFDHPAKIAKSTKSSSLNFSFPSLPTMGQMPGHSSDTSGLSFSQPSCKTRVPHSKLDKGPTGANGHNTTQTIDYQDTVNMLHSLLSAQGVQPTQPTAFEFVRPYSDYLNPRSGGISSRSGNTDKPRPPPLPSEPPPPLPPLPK
# recombinant P-TEFb (Cdk9/cyclin T1), sequence (P50750 whole entry): as the sequence (P50750 whole entry) above
# recombinant P-TEFb (Cdk9/cyclin T1), sequence (O60563 whole entry partner): as the sequence (O60563 whole entry, further chain) above
smiles,measurement,setting,value
CC[C@H](CO)Nc1nc(NCc2ccccc2)c2ncn(C(C)C)c2n1 [roscovitine],generation of a resistant HIV-1 strain,HIV-1,unsuccessful
CC[C@H](CO)Nc1nc(NCc2ccccc2)c2ncn(C(C)C)c2n1 [Seliciclib],side effects caused,[1],fatigue and elevated creatinine
CN1CC[C@H](c2c(O)cc(O)c3c(=O)cc(-c4ccccc4Cl)oc23)[C@H](O)C1 [Flavopiridol],LD50 in PBLs,[2]; donor #1,143 nM
same,LD50 in PBLs,[2]; donor #2,81 nM
same,LD50 in PBLs,[2]; donor #3,123 nM
same,IC50,HIV-1p256 [3],61 nM
same,IC50,HIV-1p256 [4],9.5 nM
same,IC50,"HIV-1p256 [5]; Human immunodeficiency virus 1, donor #1",35 nM
same,IC50,"HIV-1p256 [5]; Human immunodeficiency virus 1, donor #2",40 nM
same,IC50,"HIV-1p256 [5]; Human immunodeficiency virus 1, donor #3",61 nM
same,Hela37 cell cytotoxicity (LD50),HeLa37 cells,0.225 µM
same,effect on amount of the large form of P-TEFb,large form of P-TEFb [6],gradual reduction in the amount of the large form
same,LD50 in MDMs,[7],99 nM
"OC[C@H]1O[C@@H](n2cnc3cc(Cl)c(Cl)cc32)[C@H](O)[C@@H]1O [DRB, 5,6-dichloro-1-beta-D-ribofuranosylbenzimidazole]",IC50,HIV-1p256 [4],2600 nM
same,IC50,[8],900 nM
same,Hela37 cell cytotoxicity (LD50),HeLa37 cells,20 µM
same,effect on amount of the large form of P-TEFb,large form of P-TEFb [6],gradual reduction of the large form
same,P-TEFb subunits left in the large form of the complex,"large form of P-TEFb [9]; 10 μM DRB, 1 hour, without DRB approx. 60% of Cdk9 and 70% of cyclin T1",about 20%
same,IC50,"large form of P-TEFb [9]; HeLa cells, 1 hour treatment, Cdk9 and cyclin T1 immunoblot of glycerol gradient fractions, read-out: concentration causing a 50% reduction in large form within the cell",~3000 nM
same,P-TEFb subunits in cytosolic extracts prepared with low salt lysis buffer,"large form of P-TEFb [10]; HeLa cells, 100 μM DRB, 1 hour, untreated approx. 50% in cytosolic extract",not detected
same,IC50,"large form of P-TEFb [10]; read-out: IC50 for the release of free form of P-TEFb from the large form of the complex, HeLa37 cells, low salt extraction",~4500 nM
same,IC50,"large form of P-TEFb [10]; read-out: IC50 of loss of large form from HeLa cells: Cdk9, Cdk9 western blot",4200 ± 1600 nM
same,IC50,"large form of P-TEFb [10]; read-out: IC50 of loss of large form from HeLa cells: Cyclin T1, cyclin T1 western blot",5000 ± 3000 nM
